Results taken from patent US6492356B1, “Acylguanidine derivatives as inhibitors of bone resorption and as vitronectin receptor antagonists” (Aventis Pharma Deutschland GmbH, priority 1997, dated 2002).

Molecular target: T1, vitronectin receptor αvβ3 (Homo sapiens, UniProt P05106+P06756)
T1 construct: expressed in transfected cells
Assay: Inhibition of binding of 293 cells to human vitronectin (Vn/293 cell test)
Format: cell-based
Conditions: 293 cells cotransfected with αv and β3 subunits; plate coated with human vitronectin; 90 min at 37° C.
Source text: Test for the measurement of the inhibition of binding of 293 cells to human vitronectin (Vn/293 cell test)
1. Purification of Human Vitronectin
Human vitronectin is isolated from human plasma and purified by affinity chromatography according to the method of Yatohyo et al., Cell Structure and Function, 1988, 23, 281-292.
293 cells, a human embryonic kidney cell line, which are cotransfected with DNA sequences for the αv and β3 subunits of the vitronectin receptor αvβ3 , are selected for a high rate of expression (>500,000 αvβ3 receptors/cell) according to the FACS method. The selected cells are cultured and sorted again by means of FACS in order to obtain a stable cell line (15 D) with expression rates >1,000,000 copies of αvβ3 per cell.
A Linbro 96-well tissue culture plate with a flat bottom is coated overnight at 4° C. with human vitronectin (0.01 mg/ml, 0.05 ml/well) in phosphate-buffered saline solution (PBS) and then blocked with 0.5% strength BSA (bovine serum albumin). Solutions of the test substances from 10^−10 mol/l to 2×10^−3 mol/l in glucose-containing DMEM medium are prepared and 0.05 ml/well of the solution are added to the plate in each case. The cells which express high levels of αvβ3 (for example 15 D) are suspended in glucose-containing DMEM medium and the suspension is adjusted to a content of 25,000 cells/0.05 ml of medium. 0.05 ml of this cell suspension is added to each well and the plate is incubated at 37° C. for 90 min. The plate is washed three times with warm PBS in order to remove unbound cells. The bound cells are lyzed in citrate buffer (25 mM, pH 5.0) which contains 0.25% Triton X-100. The hexoseamidase substrate p-nitrophenyl-N-acetyl-β-D-glucosaminide is then added and the plate is incubated at 37° C. for 90 min. The reaction is stopped with a glycine (50 mM)/EDTA (5 mM) buffer (pH 10.4) and the absorption of each well is measured at 405-650 nm. The data are analyzed according to standard processes.

T1 sequence (P06756 31-889 limits assumed): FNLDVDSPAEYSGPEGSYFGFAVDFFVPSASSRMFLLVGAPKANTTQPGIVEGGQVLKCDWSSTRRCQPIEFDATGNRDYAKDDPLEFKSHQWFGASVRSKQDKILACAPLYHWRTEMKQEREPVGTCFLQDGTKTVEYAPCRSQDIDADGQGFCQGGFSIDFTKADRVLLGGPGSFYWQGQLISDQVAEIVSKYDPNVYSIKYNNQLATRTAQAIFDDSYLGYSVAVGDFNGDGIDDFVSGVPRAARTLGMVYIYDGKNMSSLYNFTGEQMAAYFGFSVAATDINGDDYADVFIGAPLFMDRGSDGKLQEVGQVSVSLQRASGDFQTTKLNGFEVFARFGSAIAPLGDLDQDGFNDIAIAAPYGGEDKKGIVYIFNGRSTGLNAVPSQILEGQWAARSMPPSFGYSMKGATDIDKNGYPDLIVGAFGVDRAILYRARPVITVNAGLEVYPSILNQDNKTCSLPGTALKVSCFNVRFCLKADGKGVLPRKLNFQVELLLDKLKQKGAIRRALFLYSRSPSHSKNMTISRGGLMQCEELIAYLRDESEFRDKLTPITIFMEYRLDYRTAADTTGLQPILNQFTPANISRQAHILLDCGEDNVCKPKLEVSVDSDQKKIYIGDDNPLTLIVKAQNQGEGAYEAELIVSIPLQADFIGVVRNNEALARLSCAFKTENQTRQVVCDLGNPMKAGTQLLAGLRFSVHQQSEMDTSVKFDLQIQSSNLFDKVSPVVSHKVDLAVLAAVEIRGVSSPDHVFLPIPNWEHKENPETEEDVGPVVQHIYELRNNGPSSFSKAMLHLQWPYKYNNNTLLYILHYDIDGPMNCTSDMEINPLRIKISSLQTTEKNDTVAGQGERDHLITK
T1 sequence (P06756 891-1048 limits assumed): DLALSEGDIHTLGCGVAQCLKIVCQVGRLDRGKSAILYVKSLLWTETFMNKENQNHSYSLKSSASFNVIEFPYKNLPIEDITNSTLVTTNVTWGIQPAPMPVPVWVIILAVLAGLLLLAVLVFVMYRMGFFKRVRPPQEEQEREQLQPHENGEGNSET
T1 sequence (P05106 27-788): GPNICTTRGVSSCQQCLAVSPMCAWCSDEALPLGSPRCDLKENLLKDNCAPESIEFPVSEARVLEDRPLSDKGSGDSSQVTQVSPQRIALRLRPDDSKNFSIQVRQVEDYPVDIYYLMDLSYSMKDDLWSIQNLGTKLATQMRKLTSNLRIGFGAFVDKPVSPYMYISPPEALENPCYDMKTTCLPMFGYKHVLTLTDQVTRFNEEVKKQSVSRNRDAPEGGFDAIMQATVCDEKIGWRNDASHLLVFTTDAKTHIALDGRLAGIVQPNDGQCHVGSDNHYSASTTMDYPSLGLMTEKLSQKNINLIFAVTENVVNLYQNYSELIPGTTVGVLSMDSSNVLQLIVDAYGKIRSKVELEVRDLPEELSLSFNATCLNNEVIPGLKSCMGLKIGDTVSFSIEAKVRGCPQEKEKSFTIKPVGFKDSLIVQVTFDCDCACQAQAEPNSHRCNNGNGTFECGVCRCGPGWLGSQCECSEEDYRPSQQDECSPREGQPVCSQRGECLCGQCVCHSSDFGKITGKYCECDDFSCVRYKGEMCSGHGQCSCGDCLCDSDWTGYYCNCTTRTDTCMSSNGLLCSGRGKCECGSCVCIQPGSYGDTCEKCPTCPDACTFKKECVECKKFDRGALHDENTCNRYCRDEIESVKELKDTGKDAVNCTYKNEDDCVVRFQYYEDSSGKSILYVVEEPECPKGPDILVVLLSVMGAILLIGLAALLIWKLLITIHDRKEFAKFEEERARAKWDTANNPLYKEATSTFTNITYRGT

| IC50 | Structure (SMILES) |
| --- | --- |
| 32 nM | O=C(CCCOc1ccc(C[C@H](NC(=O)OCc2ccccc2)C(=O)O)cc1)NC1=NCCN1 [Example 6, (2S)-2-Benzyloxycarbonylamino-3-(4-(3-(4,5-dihydro-1H-imidazol-2-ylcarbamoyl)propyloxy)phenyl)propionic Acid] |
| 1350 nM | O=C(COc1ccc(C(=O)NC[C@H](NC(=O)OCc2ccccc2)C(=O)O)cc1)NC1=NCCCN1 [Example 3, (2S )-2-Benzyloxycarbonylamino-3-(4-((1,4,5,6-tetrahydropyrimidin-2-ylcarbamoyl)methyloxy)benzoylamino)propionic Acid] |
| 17 nM | O=C(CCc1ccc(C(=O)NC[C@H](NC(=O)OCc2ccccc2)C(=O)O)cc1)NC1=NCCCN1 [Example 2, (2S)-2-Benzyloxycarbonylamino-3-(4-(2-(1,4,5,6-tetrahydropyrimidin-2-ylcarbamoyl)ethyl)benzoylamino)propionic Acid] |
| 28 nM | O=C(CCCOc1ccc(C[C@H](NC(=O)OCc2ccccc2)C(=O)O)cc1)NC1=NCCCN1 [Example 1, (2S)-2-Benzyloxycarbonylamino-3-(4-(3-(1,4,5,6-tetrahydropyrimidin-2-ylcarbamoyl)propyloxy)phenyl)propionic Acid] |
